Key:
[1] = system: peripheral blood lymphocytes; test: Lymphopenia: peripheral blood lymphocyte counts, acute and chronic s.c. dosing; format: in vivo; settings: 7 days, c57bl/6 mice; for Lymphopenia effect (change in peripheral blood lymphocytes): 6 mg/kg sc, vs vehicle
Protocol: Compounds were tested for changes in peripheral blood lymphocytes in C57bl/6 mice. In acute studies, animals (n=5/group) were dosed subcutaneously with test compound at a dose of 3 mg/kg. Animals were sacrificed at specific time points and […] of whole blood was collected in EDTA (K2) Eppendorf tubes. Blood was stored on ice and shipped immediately overnight delivery to Charles River Laboratories for analysis. CRL ran samples through their WBC/differential panel on an Advia 120 instrument. We received peripheral lymphocyte counts (10^3 cells/μl) for each blood sample. Treatment group means were compared to a vehicle treatment group for statistical significance. In chronic studies, animals (n=6-8/group) were dosed subcutaneously for three to seven days with test compound at doses that were at least 5-fold higher than the efficacious dose in pharmacology/behavioral assays. On the last day, animals were sacrificed 45 minutes to 6 hrs after the final dose. Whole blood was collected and analyzed as described for acute studies. […]

[2] = biological target: T1, human sphingosine-1-phosphate receptor 1 (S1P1) (Homo sapiens, UniProt P21453); test: β-Arrestin2 recruitment assay (PathHunter), S1P1 CHO-K1 cells; format: cell-based; settings: for Emax: efficacy normalized to maximum efficacy of fingolimod, read-out: hS1P1 B-arrestin2 SPAN; for EC50: β-arrestin2 recruitment, read-out: hS1P1 B-arrestin2 pEC50 (converted)
Summary of the method: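 CHO-K1 cells co-expressing EA-β-arrestin2 and ProLink-tagged human S1P1 plated overnight, then stimulated 60 min at 37 °C. Enzyme-fragment complementation (β-galactosidase) detected after 1 h at room temperature by luminescence; values normalized to fingolimod.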
Target sequence in this assay (P21453 whole entry, the tested form may be a part): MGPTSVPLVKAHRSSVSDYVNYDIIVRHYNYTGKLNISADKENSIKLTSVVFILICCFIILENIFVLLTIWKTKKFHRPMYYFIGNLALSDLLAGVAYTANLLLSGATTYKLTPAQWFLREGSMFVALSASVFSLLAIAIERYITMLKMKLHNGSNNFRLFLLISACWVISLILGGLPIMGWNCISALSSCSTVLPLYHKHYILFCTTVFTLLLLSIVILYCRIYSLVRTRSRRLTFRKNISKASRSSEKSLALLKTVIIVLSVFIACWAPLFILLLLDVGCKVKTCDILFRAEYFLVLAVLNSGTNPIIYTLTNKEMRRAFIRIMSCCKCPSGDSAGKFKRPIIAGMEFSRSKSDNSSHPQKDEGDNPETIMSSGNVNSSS
Target sequence in this assay (P32121 whole entry partner, the tested form may be a part): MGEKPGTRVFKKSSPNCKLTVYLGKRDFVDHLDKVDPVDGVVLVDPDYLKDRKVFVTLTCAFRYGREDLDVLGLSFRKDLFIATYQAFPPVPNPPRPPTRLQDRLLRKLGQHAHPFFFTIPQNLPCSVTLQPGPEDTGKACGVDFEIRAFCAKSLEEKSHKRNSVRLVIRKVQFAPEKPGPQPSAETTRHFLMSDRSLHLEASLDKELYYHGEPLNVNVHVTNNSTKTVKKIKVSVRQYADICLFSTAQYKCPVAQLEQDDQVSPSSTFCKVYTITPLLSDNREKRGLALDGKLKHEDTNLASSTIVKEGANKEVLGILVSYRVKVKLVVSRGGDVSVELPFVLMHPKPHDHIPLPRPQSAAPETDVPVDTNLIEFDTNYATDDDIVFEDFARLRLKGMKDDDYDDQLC

[3] = biological target: sphingosine-1-phosphate receptor 5 (S1P5) (Homo sapiens, UniProt Q9H228); test: Selectivity: inhibition of cAMP production (HTRF), S1P5 CHO-K1 cells; format: cell-based; settings: for Emax: CHO-K1, efficacy normalized to maximal efficacy of fimgolimod, read-out: hS1P5 cAMP SPAN; for EC50: inhibition of cAMP production, read-out: hS1P5 cAMP pEC50 (converted)
sphingosine-1-phosphate receptor 5 (S1P5), sequence (Q9H228 whole entry): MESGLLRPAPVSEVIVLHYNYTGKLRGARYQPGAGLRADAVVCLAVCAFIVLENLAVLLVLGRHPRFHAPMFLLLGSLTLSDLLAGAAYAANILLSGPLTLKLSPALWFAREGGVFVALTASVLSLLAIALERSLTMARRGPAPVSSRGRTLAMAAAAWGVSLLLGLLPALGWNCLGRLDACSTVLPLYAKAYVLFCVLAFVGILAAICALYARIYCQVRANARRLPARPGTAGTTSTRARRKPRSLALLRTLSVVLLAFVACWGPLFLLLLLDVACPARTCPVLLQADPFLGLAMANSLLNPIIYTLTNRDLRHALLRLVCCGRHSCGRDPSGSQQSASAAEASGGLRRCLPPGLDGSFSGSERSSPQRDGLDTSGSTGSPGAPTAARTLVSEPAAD
Protocol: (§1) Cell Culturing and Assay Plating Cell lines were cultured in AssayComplete™ Media 6 (DiscoverX Corporation, Cat #: 920018GF2) at 37° C. and 5% CO2 in a humidified CO2 and temperature-controlled incubator. To begin assay plating, cells were washed with Dulbecco's phosphate buffered saline (CellGro, Cat #: 21-031-CV) and lifted from the culturing flask by incubation (37° C., 5 min) with CellStripper (Cellgro, Cat #: 25-056-CI). […] Plated cells were incubated overnight at 37° C. and 5% CO2 in a humidified CO2 and temperature-controlled incubator. Detecting Inhibition of cAMP Production
(§2) S1P3 and S1P5 Agonist-promoted G-protein responses were determined by measuring changes in intracellular cAMP using the HTRF® cAMP HiRange kit (CisBio, Cat #: 62AM6PEJ) based on time-resolved fluorescence resonance energy transfer (TR-FRET) technology. […] Following a 30-minute room temperature incubation the components of the cAMP HiRange kit were added as per the manufacturer's instructions. After an hour incubation at room temperature, plates were analyzed by a BMG PheraStar microplate reader.
(§3) These values are normalized to fimgolimod, a known agonist of the sphingosine-1-phosphate 3 and 5 receptor or CYM5520, a known agonist of the sphingosine-1-phosphate 2 receptor. The tables also include potency values (pEC50) for modulating discrete receptor-mediated activities (inhibition of cAMP production or inositol monophosphate accumulation).

[4] = biological target: human sphingosine-1-phosphate receptor 3 (S1P3) (Homo sapiens, UniProt Q99500); test: Selectivity: inhibition of cAMP production (HTRF), S1P3 CHO-K1 cells; format: cell-based; settings: for Emax: CHO-K1, efficacy normalized to maximal efficacy of fimgolimod, read-out: hS1P3 cAMP SPAN; for EC50: inhibition of cAMP production, read-out: hS1P3 cAMP pEC50 (converted)
human sphingosine-1-phosphate receptor 3 (S1P3), sequence (Q99500 whole entry): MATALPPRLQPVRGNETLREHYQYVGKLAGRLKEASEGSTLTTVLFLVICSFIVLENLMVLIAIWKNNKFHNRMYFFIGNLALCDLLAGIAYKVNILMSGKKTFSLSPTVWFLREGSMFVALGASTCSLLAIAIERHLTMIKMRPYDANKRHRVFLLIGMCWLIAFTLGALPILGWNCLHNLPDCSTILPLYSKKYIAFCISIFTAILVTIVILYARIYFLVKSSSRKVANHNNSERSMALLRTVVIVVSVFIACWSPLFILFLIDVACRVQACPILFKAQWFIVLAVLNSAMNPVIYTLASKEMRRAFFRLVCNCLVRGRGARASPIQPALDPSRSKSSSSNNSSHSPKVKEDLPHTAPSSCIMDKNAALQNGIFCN
Protocol: as §1, §2, §3

[5] = biological target: human sphingosine-1-phosphate receptor 2 (S1P2) (Homo sapiens, UniProt O95136); test: Selectivity: inositol monophosphate production (IP-one), S1P2 CHO-K1 cells; format: cell-based; settings: for Emax: CHO-K1, efficacy normalized to maximal efficacy of CYM5520, read-out: hS1P2 IP-one SPAN; for EC50: inositol monophosphate accumulation, read-out: hS1P2 IP-one pEC50 (converted)
human sphingosine-1-phosphate receptor 2 (S1P2), sequence (O95136 whole entry): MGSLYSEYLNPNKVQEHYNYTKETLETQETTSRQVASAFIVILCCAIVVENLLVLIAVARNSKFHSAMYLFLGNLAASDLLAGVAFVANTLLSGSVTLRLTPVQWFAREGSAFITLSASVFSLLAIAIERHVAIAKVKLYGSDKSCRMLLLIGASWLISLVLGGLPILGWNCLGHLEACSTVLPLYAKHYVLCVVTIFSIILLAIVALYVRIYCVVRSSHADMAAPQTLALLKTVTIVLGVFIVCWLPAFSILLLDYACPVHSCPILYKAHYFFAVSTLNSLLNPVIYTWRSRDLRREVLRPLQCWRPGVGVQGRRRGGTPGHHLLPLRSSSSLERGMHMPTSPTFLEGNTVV
Protocol: as §1
S1P2 Agonist-promoted G-protein responses were determined by measuring changes in intracellular inositol monophosphate using the IP-one TB kit (CisBio, Cat #: 62IPAPEJ) based on time-resolved fluorescence resonance energy transfer (TR-FRET) technology. AssayComplete™ Cell Plating 2 Reagent was removed and replaced with 1× IP-one stimulation buffer (as per manufacturer's instructions) along with test or control compounds at the desired concentrations.
Following a 60-minute incubation at 37° C. and 5% CO2 in a humidified CO2 and temperature-controlled incubator, the components of the IP-one TB kit were added as per the manufacturer's instructions. After an hour incubation at room temperature, plates were analyzed by a BMG PheraStar microplate reader.
as §3

[6] = biological target: T1, human sphingosine-1-phosphate receptor 1 (S1P1); test: Inhibition of cAMP production (HTRF cAMP HiRange), S1P1 CHO-K1 cells; format: cell-based; settings: for Emax: CHO-K1, efficacy normalized to maximum efficacy of fingolimod, read-out: hS1P1 CAMP SPAN; for EC50: read-out: hS1P1 CAMP pEC50 (converted)
Summary of the method: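 CHO-K1 cells co-expressing human S1P1 (C-terminal ProLink tag) and EA-β-arrestin2, plated overnight; after 30 min compound incubation at 37 °C, intracellular cAMP measured by HTRF TR-FRET following 1 h at room temperature. Values normalized to fingolimod.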
Target sequence in this assay (P21453 whole entry, the tested form may be a part): as the sequence (P21453 whole entry, the tested form may be a part) above

[7] = CHO-K1, β-arrestin2 recruitment
[8] = inhibition of cAMP production, potency
[9] = inhibition of cAMP production, S1P1

Row | SMILES | Lymphopenia effect (peripheral blood lymphocytes) ([1]; 3 mg/kg sc) | Emax [2, 7] | EC50 ([2]; potency) | Emax [3] | EC50 [3] | Emax [4] | EC50 [4] | Emax [5] | EC50 [5] | Emax ([6]; inhibition of cAMP production) | EC50 [6, 8] | Emax ([2]; CHO-K1) | EC50 ([2]; S1P1) | Emax [6] | EC50 [6, 9] | Lymphopenia effect (change in peripheral blood lymphocytes) [1]
1 | CC(C)Oc1ccc(-c2nc(-c3ccc4c(c3)nnn4C(C)C)no2)cc1C#N [Compound 22, 2-isopropoxy-5-(3-(1-isopropyl-1H-benzo[d] [1,2,3]triazol-5-yl)-1,2,4-oxadiazol-5-yl)benzonitrile] | no change: 3 mg/kg, 7 days | – | – | – | – | – | – | – | – | – | – | – | – | – | – | –
2 | CCC1(CC)CC(=O)c2cc(-c3nc(-c4ccc5[nH]ncc5c4)no3)ccc2O1 [Compound 152, 6-(3-(1H-indazol-5-yl)-1,2,4-oxadiazol-5-yl)-2,2-diethyl-chroman-4-one] | – | > 75% | < 10 µM | < 50% | > 10 µM | < 50% | > 10 µM | < 50% | > 10 µM | > 75% | > 0.316 µM | – | – | – | – | –
3 | CC(C)n1nnc2cc(-c3nc4c(o3)Cc3ccccc3-4)ccc21 [Compound 219, 5-{8H-indeno[1,2-d][1,3]oxazol-2-yl}-1-(propan-2-yl)-1H-1,2,3-benzotriazole] | – | > 75% | < 10 µM | < 50% | > 10 µM | < 50% | > 10 µM | < 50% | < 10 µM | < 75% | < 0.316 µM | – | – | – | – | –
4 | CCC1(CC)CC(=O)c2cc(-c3nc(-c4ccccc4Cl)no3)ccc2O1 [Compound 221, 6-(3-(2-chlorophenyl)-1,2,4-oxadiazol-5-yl)-2,2-diethylchroman-4-one] | – | > 75% | < 10 µM | < 50% | < 10 µM | < 50% | < 10 µM | < 50% | > 10 µM | > 75% | < 0.316 µM | – | – | – | – | –
5 | C=CCNc1ccc(-c2nc(-c3cn[nH]c3)no2)cc1C#N [Compound 252, 5-(3-(1H-pyrazol-4-yl)-1,2,4-oxadiazol-5-yl)-2-(allyl-amino)benzonitrile] | – | > 75% | – | > 50% | < 10 µM | < 50% | < 10 µM | < 50% | < 10 µM | > 75% | – | – | – | – | – | –
6 | CCC1(CC)CC(=O)c2cc(-c3nc(-c4ccnc(O)c4)no3)ccc2O1 [Compound 263, 2,2-diethyl-6-[3-(2-hydroxy-4-pyridyl)-1,2,4-oxadiazol-5-yl]chroman-4-one] | – | > 75% | < 10 µM | < 50% | > 10 µM | < 50% | > 10 µM | < 50% | > 10 µM | > 75% | < 0.316 µM | – | – | – | – | –
7 | C=CCNc1ccc(-c2nc(-c3ccc4sc(N)nc4c3)no2)cc1C#N [Compound 267, 2-(allylamino)-5-(3-(2-aminobenzo[d]thiazol-5-yl)-1,2,4-oxadiazol-5-yl)benzonitrile] | – | < 75% | < 10 µM | < 50% | > 10 µM | < 50% | > 10 µM | < 50% | > 10 µM | < 75% | < 0.316 µM | – | – | – | – | –
8 | COc1cnccc1-c1nc(-c2ccc3c(ccn3C(C)C)c2)no1 [Compound 391, 3-(1-isopropyl-1H-indol-5-yl)-5-(3-methoxypyridin-4-yl)-1,2,4-oxadiazole] | – | – | – | < 50% | < 10 µM | > 50% | < 10 µM | < 50% | < 10 µM | – | – | > 75% | < 10 µM | > 75% | < 0.316 µM | –
9 | COc1ccccc1-c1nc(-c2ccc3c(ccn3C(C)C)c2)no1 [Compound 398, 3-(1-isopropyl-1H-indol-5-yl)-5-(2-methoxyphenyl)-1,2,4-oxadiazole] | – | – | – | < 50% | > 10 µM | < 50% | > 10 µM | < 50% | > 10 µM | – | – | > 75% | < 10 µM | > 75% | < 0.316 µM | –
10 | COc1ccccc1-c1nnc(-c2ccc3c(c2)oc(=O)n3C)o1 [Compound 406, 6-[5-(2-methoxy-phenyl)-1,3,4-oxadiazol-2-yl]-3-methyl-2,3-dihydro-1,3-benzoxazol-2-one] | – | – | – | < 50% | > 10 µM | < 50% | > 10 µM | < 50% | > 10 µM | – | – | > 75% | < 10 µM | > 75% | < 0.316 µM | –
11 | Cc1ccncc1-c1noc(-c2ccc3c(c2)nnn3C2CCC2)n1 [Compound 417, 1-cyclobutyl-5-[3-(4-methylpyridin-3-yl)-1,2,4-oxadiazol-5-yl]-1H-1,2,3-benzotriazole] | – | – | – | < 50% | > 10 µM | < 50% | > 10 µM | < 50% | < 10 µM | – | – | > 75% | < 10 µM | > 75% | < 0.316 µM | –
12 | CCC1(CC)CC(=O)c2cc(-c3nc(-c4ccc5[nH]c(=O)oc5c4)no3)ccc2O1 [Compound 445, 6-(5-(2,2-diethyl-4-oxochroman-6-yl)-1,2,4-oxadiazol-3-yl)benzo[d]oxazol-2(3H)-one] | – | – | – | – | – | < 50% | > 10 µM | < 50% | < 10 µM | – | – | > 75% | < 10 µM | > 75% | < 0.316 µM | –
13 | CC(C)Nc1ccc(-c2nc(-c3ccc4c(c3)NC(=O)C4)no2)cc1C#N [Compound 496, 2-(isopropylamino)-5-(3-(2-oxoindolin-6-yl)-1,2,4-oxadiazol-5-yl)benzonitrile] | – | – | – | – | – | < 50% | > 10 µM | < 50% | > 10 µM | – | – | > 75% | < 10 µM | > 75% | < 0.316 µM | –
14 | COc1cc(NC(C)=O)ccc1-c1noc(-c2ccc(NC(C)C)c(C#N)c2)n1 [Compound 731, N-[4-(5-{3-cyano-4-[(propan-2-yl)amino]phenyl}-1,2,4-oxadiazol-3-yl)-3-methoxyphenyl]acetamide] | – | – | – | – | – | – | – | – | – | – | – | – | – | – | – | −78% stat sig: 6 mg/kg, 7 days
15 | CC(C)Nc1ccc(-c2ncc(-c3cccnc3)cn2)cc1C#N [Compound 737, 2-(isopropylamino)-5-(5-(pyridin-3-yl)pyrimidin-2-yl)benzonitrile] | – | – | – | – | – | – | – | – | – | – | – | – | – | – | – | −40% not stat sig: 6 mg/kg, 7 days
